The values below come from PMC6357004 (Viruses, 2018).

Assay [1] concerns the target neuraminidase (NA) of recombinant influenza B/Phuket/3073/2013 WT virus (Influenza B virus, UniProt A0A1S5RAG6). Type of assay: biochemical, influenza B/Phuket/3073/2013 virus.
A further assay concerns N294S mutant. The settings on record: cited from earlier work.

SMILES strings stand for the structures. pIC50: −log10 of the molar value.

Usually pIC50 stands for the IC50 on a negative log10 scale, so that one unit is a factor of ten.

neuraminidase (NA) of recombinant influenza B/Phuket/3073/2013 WT virus, sequence (A0A1S5RAG6 entry or part of it, added parts left off): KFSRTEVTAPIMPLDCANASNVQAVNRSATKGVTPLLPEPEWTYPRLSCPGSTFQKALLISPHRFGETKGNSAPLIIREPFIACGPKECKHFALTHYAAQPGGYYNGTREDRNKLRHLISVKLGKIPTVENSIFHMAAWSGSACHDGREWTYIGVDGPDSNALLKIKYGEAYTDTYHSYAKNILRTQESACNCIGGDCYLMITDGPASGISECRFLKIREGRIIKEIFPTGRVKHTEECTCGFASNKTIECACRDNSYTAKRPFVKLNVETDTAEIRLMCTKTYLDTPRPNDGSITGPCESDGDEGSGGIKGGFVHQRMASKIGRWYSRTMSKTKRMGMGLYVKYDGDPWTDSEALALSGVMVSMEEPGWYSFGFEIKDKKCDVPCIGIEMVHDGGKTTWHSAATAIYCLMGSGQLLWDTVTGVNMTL

For the compound `CCC(CC)[C@H](NC(C)=O)[C@@H]1[C@H](O)[C@@H](C(=O)O)C[C@H]1N=C(N)N` [Peramivir, peramivir], the “Folds (fold changes according to WT virus)” value in assay [1] was 1 fold. The negative logarithm of the IC50 (pIC50) in assay [1] (mean of two independent experiments in duplicate, read-out: Neuraminidase Inhibitors IC50 values) is 9.13.

As to `CC(=O)N[C@H]1[C@H]([C@H](O)[C@H](O)CO)OC(C(=O)O)=C[C@@H]1N=C(N)N` [Zanamivir, zanamivir], the susceptibility phenotype result with N294S mutant was “susceptible”.
